# pIC50: −log10 of the molar value.
# Legend:
# SS cells = test: Oxygen dissociation curve (P50) of sickle cells; type: cell-based, human
# Description: (§1) The uptake of oxygen by haemoglobin as a function of oxygen pressure gives a measure of the oxygen affinity of the haemoglobin and is often described by the value of P50, i.e. the pressure of oxygen at which haemoglobin is 50% saturated with O2. The P50 for HbS is typically higher than that for HbA, the decreased affinity for O2 compensating for the anaemia associated with the disease by facilitating release of O2 to the tissues. An agent which would decrease the P50 of HbS would cause the deoxy-form of the molecule to be less favoured and would thus inhibit polymerisation. It is possible to correlate the degree of oxygenation of sickle erythrocytes with the ability thereof to assume sickled morphology by counting deoxygenated cells using a light microscope. An anti-sickling agent which reduces the number of sickled cells produced at low oxygen concentrations would be effective in preventing or diminishing a crisis.
# [1] = Solubility in physiological buffers; type: physicochemical
# HbS = test: Rate of polymerisation of HbS: lag time before onset of gelation after temperature jump; type: biochemical, human; settings: different molar ratios of dipeptide:HbS, FIG. 4
# Procedure: The rate of polymerisation of HbS molecules may be followed by spectrophotometrically monitoring the onset of gelation, after a temperature jump from 0° C. to 37° C., in a concentrated HbS solution. An effective anti-sickling agent should reduce the rate of polymerisation by at least ten-fold.
# [2] = system: sickle cell haemoglobin (HbS); test: HbS gelation assay (solubility Csol of deoxygenated HbS); type: biochemical, human
# Procedure: A number of in vitro methods have been developed for testing the effects of compounds of the functioning of HbS molecules. One such method determines the ability of a compound to inhibit gel formation in HbS solutions. In this gelation assay, Hb solution in phosphate buffer, pH 7.0, at physiological concentrations are mixed at 0° C. with the test compound and deoxygenated by evacuation. […] The solutions are then transferred to centrifuge tubes and equilibrated at 37° C. for 30 minutes before centrifugation at 150,000 g for 1 hour. The supernatant is decanted from the gel and the Hb concentration (Csol) thereof determined spectrophotometrically. For sickle cell haemoglobin without addition of anti-sickling agent, the Csol is typically 17 gm/dl. This compares with a Csol of 23 gm/dl for haemoglobin extracted from individuals having sickle cell trait.
# whole sickle cells = test: Microscopic whole cell sickling assay; type: cell-based, human
# Description: as §1
# There are fewer sickle cells in the presence of the dipeptide over the entire range of oxygen concentration. […] In vivo, this increased reversibility would reduce the number of circulating irreversibly sickled cells (ISC).
substance,measurement,setting,value
L-lysine-L-phenylalanine,P50,"SS cells; SS cells + 25 mM peptide, 3 hours incubation at 37° C., 5:1 molar ratio extra-cellular dipeptide:intra-cellular HbS, 51 mm without peptide",41 mm of mercury
same,oxygen affinity of cells,SS cells; incubation with peptide,increase in oxygen affinity
same,solubility in physiological buffers,[1],readily soluble
same,lag time before gelation (rate of polymerisation),HbS,increase in the delay before gelation
same,effect on Csol of HbS,[2]; FIG. 2,increase in Csol
same,inhibition of gelation of deoxygenated HbS solutions,[2]; in vitro,inhibit the gelation
same,Csol (solubility of homozygous sickle cell haemoglobin),"[2]; peptide:Hb tetramer ratio of 4.7:1, from linear plot of Csol versus log (peptide:Hb), HbS without agent typically 17 gm/dl",23 gm/dl
same,increase of HbS solubility over L-phenylalanine,[2]; relative to L-phenylalanine,four-fold
same,inhibition of whole cell sickling,whole sickle cells,inhibits whole cell sickling
same,proportion of sickled cells becoming unsickled as oxygen is made available,whole sickle cells; compared with control,a greater proportion becomes unsickled
same,pIC50,"whole sickle cells; complete deoxygenation, in vitro dose response, FIG. 9, read-out: extra-cellular concentration reducing the number of sickled cells by 50%",~2.30
same,percentage of sickled cells,"whole sickle cells; pre-incubation with peptide, different partial pressures of oxygen",substantially reduced
same,pre-incubation time sufficient to protect against sickling,"whole sickle cells; zero oxygen tension, FIG. 8",15 min

# From patent US4376766A, “Anti-sickling agents” (G.D. Searle & Co., priority 1980, dated 1983)
